{"source": "ChEMBL document CHEMBL5723587", "about": "“Data for DCP probe BI-113823” (2024)", "key": {"B1 bradykinin receptor": {"molecular_target": "T1, B1 bradykinin receptor (Homo sapiens, UniProt P46663)", "T1 sequence (P46663 whole entry)": "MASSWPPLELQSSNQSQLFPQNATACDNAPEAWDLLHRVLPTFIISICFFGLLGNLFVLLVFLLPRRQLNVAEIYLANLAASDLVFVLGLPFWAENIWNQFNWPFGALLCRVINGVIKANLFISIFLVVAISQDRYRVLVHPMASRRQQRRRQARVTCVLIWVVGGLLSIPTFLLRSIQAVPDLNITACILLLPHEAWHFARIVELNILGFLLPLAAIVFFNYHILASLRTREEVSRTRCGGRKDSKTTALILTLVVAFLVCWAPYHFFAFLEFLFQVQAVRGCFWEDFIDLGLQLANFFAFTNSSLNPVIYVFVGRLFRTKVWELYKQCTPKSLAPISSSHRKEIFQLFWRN", "assay": "Radioligand binding assay (displacement of kallidin, hBDKRB1 ) at 10 µM ( Non-specific binding is estimated in the presence of 10 µM Des-Arg9- (Leu8)-Bradykinin. Membranes are filtered and washed, the filters are then counted to determine [3H]Kallidin[des-Arg10, Leu9] specifically bound.)", "design": "compound concentration 10 uM"}, "[1]": {"molecular_target": "Adenosine receptor A1 (Homo sapiens) (UniProt P30542)", "sequence (P30542 whole entry)": "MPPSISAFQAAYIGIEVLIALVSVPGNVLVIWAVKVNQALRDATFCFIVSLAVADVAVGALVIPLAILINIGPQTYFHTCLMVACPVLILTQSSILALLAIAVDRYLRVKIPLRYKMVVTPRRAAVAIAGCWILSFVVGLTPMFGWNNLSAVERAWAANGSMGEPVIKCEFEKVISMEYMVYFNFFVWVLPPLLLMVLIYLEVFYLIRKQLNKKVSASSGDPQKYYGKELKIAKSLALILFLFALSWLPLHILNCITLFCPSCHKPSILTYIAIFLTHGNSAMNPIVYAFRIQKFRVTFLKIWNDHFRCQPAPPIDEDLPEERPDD", "assay": "Activity against A1/HU in the Eurofins SafetyScreen44 (BI) by Radioactive Assay", "settings": "Compound concentration 10.0 uM"}, "[2]": {"molecular_target": "D(1A) dopamine receptor (Homo sapiens) (UniProt P21728)", "sequence (P21728 whole entry)": "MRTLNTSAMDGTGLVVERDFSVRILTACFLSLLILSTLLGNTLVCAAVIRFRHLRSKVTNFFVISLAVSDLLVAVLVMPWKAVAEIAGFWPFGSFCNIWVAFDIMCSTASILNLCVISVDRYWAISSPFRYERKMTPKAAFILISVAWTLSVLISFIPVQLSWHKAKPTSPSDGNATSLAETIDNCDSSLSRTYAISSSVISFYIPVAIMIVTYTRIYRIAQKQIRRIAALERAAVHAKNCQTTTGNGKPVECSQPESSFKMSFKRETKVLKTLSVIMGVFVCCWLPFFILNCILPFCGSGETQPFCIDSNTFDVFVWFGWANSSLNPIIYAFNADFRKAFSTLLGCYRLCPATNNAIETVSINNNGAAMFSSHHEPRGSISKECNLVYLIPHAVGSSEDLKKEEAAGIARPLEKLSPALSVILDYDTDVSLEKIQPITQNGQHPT", "assay": "Activity against D1/HU in the Eurofins SafetyScreen44 (BI) by Radioactive Assay", "settings": "Compound concentration 10.0 uM"}, "[3]": {"molecular_target": "Endothelin-1 receptor (Homo sapiens) (UniProt P25101)", "sequence (P25101 whole entry)": "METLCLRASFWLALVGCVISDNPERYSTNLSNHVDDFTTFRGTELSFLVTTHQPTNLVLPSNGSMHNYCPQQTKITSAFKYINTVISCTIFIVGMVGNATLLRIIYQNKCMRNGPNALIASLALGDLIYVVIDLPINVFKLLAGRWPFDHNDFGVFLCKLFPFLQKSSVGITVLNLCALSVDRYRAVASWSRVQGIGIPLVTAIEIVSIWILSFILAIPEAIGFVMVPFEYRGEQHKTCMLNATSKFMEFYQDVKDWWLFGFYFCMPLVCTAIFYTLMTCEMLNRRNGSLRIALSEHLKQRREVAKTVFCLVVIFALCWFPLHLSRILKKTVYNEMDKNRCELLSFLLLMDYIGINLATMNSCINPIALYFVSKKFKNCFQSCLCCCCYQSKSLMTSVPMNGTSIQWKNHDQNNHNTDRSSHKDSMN", "assay": "Activity against ETA/HU in the Eurofins SafetyScreen44 (BI) by Radioactive Assay", "settings": "Compound concentration 10.0 uM"}, "[4]": {"molecular_target": "Histamine H2 receptor (Homo sapiens) (UniProt P25021)", "sequence (P25021 whole entry)": "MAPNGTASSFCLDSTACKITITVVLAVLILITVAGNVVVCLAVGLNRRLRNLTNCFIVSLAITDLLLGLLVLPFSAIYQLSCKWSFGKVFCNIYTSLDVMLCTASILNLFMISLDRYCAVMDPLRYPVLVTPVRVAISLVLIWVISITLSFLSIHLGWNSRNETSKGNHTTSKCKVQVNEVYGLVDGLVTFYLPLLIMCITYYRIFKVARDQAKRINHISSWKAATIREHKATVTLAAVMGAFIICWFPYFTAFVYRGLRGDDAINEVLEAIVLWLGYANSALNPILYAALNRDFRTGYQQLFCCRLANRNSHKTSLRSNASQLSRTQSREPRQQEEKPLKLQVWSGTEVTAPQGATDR", "assay": "Activity against H2/H in the Eurofins SafetyScreen44 (BI) by Radioactive Assay", "settings": "Compound concentration 10.0 uM"}, "[5]": {"molecular_target": "Acetylcholine receptor subunit alpha (Homo sapiens) (UniProt P02708)", "sequence (P02708 whole entry)": "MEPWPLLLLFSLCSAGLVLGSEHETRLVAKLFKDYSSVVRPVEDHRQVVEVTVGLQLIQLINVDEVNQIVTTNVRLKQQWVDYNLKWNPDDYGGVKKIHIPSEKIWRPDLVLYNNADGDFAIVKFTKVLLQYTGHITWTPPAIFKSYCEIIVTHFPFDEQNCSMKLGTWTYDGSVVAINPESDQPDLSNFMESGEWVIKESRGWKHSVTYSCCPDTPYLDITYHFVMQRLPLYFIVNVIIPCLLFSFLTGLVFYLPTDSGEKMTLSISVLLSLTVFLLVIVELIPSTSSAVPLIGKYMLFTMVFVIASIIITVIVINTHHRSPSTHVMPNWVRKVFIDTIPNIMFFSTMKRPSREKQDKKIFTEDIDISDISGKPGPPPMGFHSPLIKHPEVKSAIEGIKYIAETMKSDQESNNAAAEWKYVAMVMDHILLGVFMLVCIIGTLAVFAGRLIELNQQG", "assay": "Activity against NACH/H in the Eurofins SafetyScreen44 (BI) by Radioligand Binding", "settings": "Compound concentration 10.0 uM"}, "[6]": {"molecular_target": "Glutamate NMDA receptor (Rattus norvegicus) (UniProt P35439+Q00959+Q00960+Q00961+Q62645+Q8VHN2+Q9R1M7)", "assay": "Agonist activity in the Eurofins SafetyScreen44 (BI) against NMDAAGSI/RA by Radioactive Assay", "type": "protein-complex assay", "settings": "Compound concentration 10.0 uM"}}, "note": "Active and inactive are the calls of the source. No cut-off for these calls is given here."}
{"smiles": "COc1cc(C)c(S(=O)(=O)N(C)CCOCC(=O)N(C)[C@H]2CCC[C@@H](N3CCN(C)CC3)C2)c(C)c1", "values": [{"measurement": "Ki", "setting": "B1 bradykinin receptor", "value": "5.3 nM (active)"}, {"measurement": "residual activity", "setting": "[1]", "value": 99, "unit": "%"}, {"measurement": "residual activity", "setting": "[2]", "value": 97, "unit": "%"}, {"measurement": "residual activity", "setting": "[3]", "value": 96, "unit": "%"}, {"measurement": "residual activity", "setting": "[4]", "value": 93, "unit": "%"}, {"measurement": "residual activity", "setting": "[5]", "value": 100, "unit": "%"}, {"measurement": "residual activity", "setting": "[6]", "value": 92, "unit": "%"}]}
